“And” between values parts separate entries of the source, which are not always exact repeats. Equal values may be shown once.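 A five-concentration, 48-hour dose response in 96-well plates underlies each endpoint, interpolated linearly between surrounding concentrations. GI50: concentration for 50% inhibition of growth. TGI: total growth inhibition.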
Assays:
Assay in all cases: NCI anticancer screen, dose series, 48 h
[1] = system: MALME-3M melanoma
[2] = system: BT-549 breast
[3] = system: HS 578T breast
[4] = system: M14 melanoma
[5] = system: MCF7 breast
[6] = system: MDA-N
[7] = system: SR leukemia
[8] = system: XF 498 CNS

Row | SMILES | TGI [1] | TGI [3] | TGI [4] | TGI [5] | TGI [8] | also measured
1 | O=C(CCN1CCCC1)Nc1ccc2c(NCCCCc3ccccc3)c3ccccc3nc2c1 | 3.26 µM |  |  |  |  | GI50 [1]: 1.72 µM
2 | Cc1c2cc[n+](C)cc2c(C)c2c1[nH]c1ccc(O)cc12 | 26.4 µM | 5.7 µM | 20.5 µM | > 39.4 µM |  | TGI [2]: 71.1 µM; TGI [6]: > 100 µM
3 | CC(=O)O[C@H]1C(=O)[C@]2(C)[C@@H](OC(=O)OCC(O)CO)C[C@H]3OC[C@@]3(OC(C)=O)[C@H]2[C@H](OC(=O)c2ccccc2)[C@]2(O)C[C@H](OC(=O)[C@H](O)[C@@H](NC(=O)c3ccccc3)c3ccccc3)C(C)=C1C2(C)C (some centres undefined) |  | < 0.01 µM |  | > 39.7 µM |  | TGI [2]: 22.9 µM; TGI [7]: 15.8 µM
4 | O=c1c(-c2ccccc2)c[nH]c2cc([N+](=O)[O-])c(/C(Cl)=C/c3ccccc3)cc12 |  |  |  |  | 23.7 µM | 
5 | COc1cc2c(cc1-c1c(C)noc1C)ncc1nc(C3CCCCC3)n(C3CCC(OC(F)F)CC3)c12 (centres undefined) |  | > 100 µM |  | > 100 µM |  | GI50 [3]: 3.74 µM; GI50 [5]: 0.584 µM
6 | CCP(=O)(CC)C(Cl)(Cl)C(=O)NC |  | > 100 µM | > 100 µM |  |  | TGI [6]: > 100 µM; TGI [7]: > 100 µM
7 | Cc1c2cc[n+](C)cc2c(COC2OC(CO)C(O)C2O)c2c3ccccc3n(C)c12 (centres undefined) | 98.4 µM |  |  | > 100 µM | > 97.3 µM | 
8 | CC(C)(C)CC(C)(C)Cc1ccc(OCCOCC[N+](C)(C)Cc2ccccc2)cc1 |  | 4.75 µM | 2.88 µM |  |  | GI50 [3]: 2.03 µM; GI50 [4]: 1.42 µM
9 | CC(=O)OC1CC2(O)C(CCC3(C)C(c4ccc(=O)oc4)CCC32O)C2(C)CCC(O)C=C12 (centres undefined) | 0.0469 µM |  |  | 0.188 µM and 0.181 µM | 0.026 µM and 0.0553 µM | GI50 [1]: 0.0112 µM; GI50 [5]: 0.0173 µM; GI50 [8]: 0.0138 µM

Source: PubChem BioAssay (NCI)
